# Calls of active or inactive are those of the source.
# Experiments:
# [1] = target: DNA dC->dU-editing enzyme APOBEC-3G (Homo sapiens, UniProt Q9HC16); type: functional;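 further: Dose-response counterscreen measuring inhibition of APOBEC3G DNA deaminase activity, run while confirming APOBEC3A inhibitors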
# [2] = NIH-3T3 fibroblast cytotoxicity, dose response, cytotoxicity control, cell-based, fluorescence, Alamar Blue, secondary assay (AID 2327); type: functional;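 further: NIH-3T3 mouse fibroblasts cultured with fluconazole at 8 µg/mL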
# [3] = target: DNA dC->dU-editing enzyme APOBEC-3A (Homo sapiens, UniProt P31941); test: Dose Response confirmation of small molecule APOBEC3A DNA Deaminase Inhibitors via a fluorescence-based single-stranded DNA deaminase assay. [Related pubchem assays (depositor defined):AID493011, AID493024]; type: functional
# Chain of DNA dC->dU-editing enzyme APOBEC-3A (P31941 whole entry): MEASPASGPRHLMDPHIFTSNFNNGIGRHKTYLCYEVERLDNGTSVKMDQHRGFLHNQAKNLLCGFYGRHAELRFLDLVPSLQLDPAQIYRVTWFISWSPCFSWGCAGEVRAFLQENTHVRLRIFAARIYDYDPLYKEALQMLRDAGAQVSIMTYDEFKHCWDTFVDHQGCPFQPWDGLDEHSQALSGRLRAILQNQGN
# [4] = target: Voltage-dependent T-type calcium channel subunit alpha-1H (Homo sapiens, UniProt O95180); type: functional;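 further: channel activity triggered by adding a high calcium stimulation buffer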
# Chain of Voltage-dependent T-type calcium channel subunit alpha-1H (O95180 whole entry): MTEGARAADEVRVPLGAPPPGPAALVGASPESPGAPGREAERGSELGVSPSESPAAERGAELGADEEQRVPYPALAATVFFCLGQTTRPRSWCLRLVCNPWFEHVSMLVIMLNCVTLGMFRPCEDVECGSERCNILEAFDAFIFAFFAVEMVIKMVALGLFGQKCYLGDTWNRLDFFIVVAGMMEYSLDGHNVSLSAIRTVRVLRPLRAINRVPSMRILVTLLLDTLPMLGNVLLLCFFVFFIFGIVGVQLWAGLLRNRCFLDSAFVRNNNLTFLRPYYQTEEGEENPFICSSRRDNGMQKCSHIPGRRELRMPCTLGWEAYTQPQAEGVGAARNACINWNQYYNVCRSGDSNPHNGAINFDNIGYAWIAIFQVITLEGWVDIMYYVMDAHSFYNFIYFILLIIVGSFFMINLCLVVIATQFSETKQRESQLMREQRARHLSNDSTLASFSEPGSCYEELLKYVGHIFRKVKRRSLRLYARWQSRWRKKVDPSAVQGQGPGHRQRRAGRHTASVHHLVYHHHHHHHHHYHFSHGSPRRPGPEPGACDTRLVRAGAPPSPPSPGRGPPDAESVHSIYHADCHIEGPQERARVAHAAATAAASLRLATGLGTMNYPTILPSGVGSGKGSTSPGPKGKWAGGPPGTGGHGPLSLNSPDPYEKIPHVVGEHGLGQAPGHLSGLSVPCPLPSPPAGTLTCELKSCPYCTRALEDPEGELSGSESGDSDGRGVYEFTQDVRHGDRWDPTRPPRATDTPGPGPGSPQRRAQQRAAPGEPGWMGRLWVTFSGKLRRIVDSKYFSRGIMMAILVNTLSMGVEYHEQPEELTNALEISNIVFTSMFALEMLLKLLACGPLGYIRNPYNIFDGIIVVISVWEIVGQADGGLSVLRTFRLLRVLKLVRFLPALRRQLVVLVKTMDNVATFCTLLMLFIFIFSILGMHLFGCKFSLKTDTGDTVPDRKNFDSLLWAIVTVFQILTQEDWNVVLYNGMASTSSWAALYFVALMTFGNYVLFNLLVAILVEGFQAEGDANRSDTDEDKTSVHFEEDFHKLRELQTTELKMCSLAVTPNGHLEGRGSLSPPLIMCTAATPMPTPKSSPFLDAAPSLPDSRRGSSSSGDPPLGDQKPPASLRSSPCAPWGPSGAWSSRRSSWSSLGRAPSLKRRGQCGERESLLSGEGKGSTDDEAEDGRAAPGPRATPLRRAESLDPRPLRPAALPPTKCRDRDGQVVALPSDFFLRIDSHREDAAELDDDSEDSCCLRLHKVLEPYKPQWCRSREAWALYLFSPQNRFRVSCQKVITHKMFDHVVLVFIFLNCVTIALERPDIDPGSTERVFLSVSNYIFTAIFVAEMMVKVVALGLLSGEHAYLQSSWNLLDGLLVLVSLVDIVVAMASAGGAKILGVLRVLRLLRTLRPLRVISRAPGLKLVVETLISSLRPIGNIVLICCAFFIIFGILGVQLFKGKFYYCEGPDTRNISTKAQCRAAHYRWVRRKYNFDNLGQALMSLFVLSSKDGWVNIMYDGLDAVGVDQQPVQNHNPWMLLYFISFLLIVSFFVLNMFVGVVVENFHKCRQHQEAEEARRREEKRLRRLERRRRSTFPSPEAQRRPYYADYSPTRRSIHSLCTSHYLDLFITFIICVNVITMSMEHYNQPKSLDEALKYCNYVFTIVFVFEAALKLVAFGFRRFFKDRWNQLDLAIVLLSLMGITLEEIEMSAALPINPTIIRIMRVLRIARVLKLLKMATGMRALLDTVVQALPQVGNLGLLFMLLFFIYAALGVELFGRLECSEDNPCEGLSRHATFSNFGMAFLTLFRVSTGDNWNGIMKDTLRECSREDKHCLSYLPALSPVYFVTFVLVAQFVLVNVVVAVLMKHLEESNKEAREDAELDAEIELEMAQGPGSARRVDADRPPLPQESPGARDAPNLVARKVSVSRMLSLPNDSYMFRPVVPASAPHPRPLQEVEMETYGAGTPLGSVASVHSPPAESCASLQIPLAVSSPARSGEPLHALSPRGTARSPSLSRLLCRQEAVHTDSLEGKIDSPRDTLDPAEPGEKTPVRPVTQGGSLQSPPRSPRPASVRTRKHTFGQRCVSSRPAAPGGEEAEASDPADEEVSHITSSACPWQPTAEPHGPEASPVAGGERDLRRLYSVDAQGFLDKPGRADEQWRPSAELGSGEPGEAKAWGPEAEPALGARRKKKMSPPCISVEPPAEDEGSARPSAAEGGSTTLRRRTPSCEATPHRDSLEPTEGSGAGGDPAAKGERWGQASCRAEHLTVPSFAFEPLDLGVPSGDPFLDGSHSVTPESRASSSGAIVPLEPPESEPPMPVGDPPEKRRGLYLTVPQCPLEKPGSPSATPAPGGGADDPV
# [5] = target: Luciferin 4-monooxygenase (Photinus pyralis, UniProt P08659); test: inhibition of purified Photinus pyralis luciferase – biochemical, luminescence, dose response (AID 1891)
# Chain of Luciferin 4-monooxygenase (P08659 whole entry): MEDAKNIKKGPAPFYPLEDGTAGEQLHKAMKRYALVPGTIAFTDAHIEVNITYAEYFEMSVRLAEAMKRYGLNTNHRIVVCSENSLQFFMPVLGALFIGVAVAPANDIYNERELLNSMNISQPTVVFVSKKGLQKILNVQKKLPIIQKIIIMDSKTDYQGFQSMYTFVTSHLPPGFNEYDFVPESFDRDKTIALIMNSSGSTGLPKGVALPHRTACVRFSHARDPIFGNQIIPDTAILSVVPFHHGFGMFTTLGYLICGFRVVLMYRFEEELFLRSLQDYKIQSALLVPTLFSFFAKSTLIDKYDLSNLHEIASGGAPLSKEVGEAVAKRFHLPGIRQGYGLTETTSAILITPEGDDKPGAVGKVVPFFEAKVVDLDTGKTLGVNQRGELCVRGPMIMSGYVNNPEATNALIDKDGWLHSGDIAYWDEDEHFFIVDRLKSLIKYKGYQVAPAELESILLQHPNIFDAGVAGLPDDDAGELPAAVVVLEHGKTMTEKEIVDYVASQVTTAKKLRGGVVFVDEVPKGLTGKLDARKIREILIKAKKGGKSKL
# [6] = Luminescence Cell-Based Dose Confirmation HTS to Identify Inhibitors of Platelet Dense Granule Release. [Related pubchem assays: 1663 (Primary HTS), 1678 (Summary of Project)]; type: functional
# cells = type: functional, cell-based
# [7] = alpha-synuclein stem-loop translation blockers – luminescence, H4 neuroglioblastoma cells, dose confirmation, confirmation (AID 2454); type: functional, cell-based;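 further: H4 neuroglioblastoma cells carrying an alpha-synuclein 5'UTR luciferase reporter; potency for inhibition of the luciferase signal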
# [8] = luciferase reporter signal reduction – luminescence, H4-C neuroglioblastoma cells, dose response (AID 2458); type: functional, cell-based;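 further: H4 neuroglioblastoma cells stably carrying a luciferase reporter gene fusion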
# Mucolipin-3 = target: T1, Mucolipin-3 (Homo sapiens, UniProt Q8TDD5); test: Dose response cell-based high-throughput screening assay for agonists of the transient receptor potential channel ML3 (TRPML3). [Related pubchem assays: 1526, 1424, 1448 ]; type: functional
# T1 sequence (Q8TDD5 whole entry): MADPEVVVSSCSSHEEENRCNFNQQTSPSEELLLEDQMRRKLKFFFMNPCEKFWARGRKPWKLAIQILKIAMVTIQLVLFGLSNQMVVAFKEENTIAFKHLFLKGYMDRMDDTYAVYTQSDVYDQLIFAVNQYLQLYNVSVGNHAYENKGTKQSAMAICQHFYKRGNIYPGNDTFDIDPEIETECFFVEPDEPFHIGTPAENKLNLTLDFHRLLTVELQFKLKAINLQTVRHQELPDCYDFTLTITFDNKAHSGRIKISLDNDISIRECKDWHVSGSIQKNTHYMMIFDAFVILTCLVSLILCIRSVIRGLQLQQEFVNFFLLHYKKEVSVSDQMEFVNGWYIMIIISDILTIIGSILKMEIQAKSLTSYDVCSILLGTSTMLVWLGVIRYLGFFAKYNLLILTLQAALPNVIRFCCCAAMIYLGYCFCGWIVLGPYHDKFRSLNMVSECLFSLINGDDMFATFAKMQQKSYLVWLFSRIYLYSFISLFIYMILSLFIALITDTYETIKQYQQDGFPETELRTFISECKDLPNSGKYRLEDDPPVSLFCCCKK
# Ion channel NompC = Ion channel NompC (Danio rerio, UniProt Q7T1G6); test: Fluorescence counterscreen assay for TRPML3 agonists: dose response cell-based high-throughput screening assay to identify agonists of the transient receptor potential channel N1 (TRPN1). [Related pubchem assays: 1526, 1424, 1448 ]; type: functional
# Chain of Ion channel NompC (Q7T1G6 whole entry): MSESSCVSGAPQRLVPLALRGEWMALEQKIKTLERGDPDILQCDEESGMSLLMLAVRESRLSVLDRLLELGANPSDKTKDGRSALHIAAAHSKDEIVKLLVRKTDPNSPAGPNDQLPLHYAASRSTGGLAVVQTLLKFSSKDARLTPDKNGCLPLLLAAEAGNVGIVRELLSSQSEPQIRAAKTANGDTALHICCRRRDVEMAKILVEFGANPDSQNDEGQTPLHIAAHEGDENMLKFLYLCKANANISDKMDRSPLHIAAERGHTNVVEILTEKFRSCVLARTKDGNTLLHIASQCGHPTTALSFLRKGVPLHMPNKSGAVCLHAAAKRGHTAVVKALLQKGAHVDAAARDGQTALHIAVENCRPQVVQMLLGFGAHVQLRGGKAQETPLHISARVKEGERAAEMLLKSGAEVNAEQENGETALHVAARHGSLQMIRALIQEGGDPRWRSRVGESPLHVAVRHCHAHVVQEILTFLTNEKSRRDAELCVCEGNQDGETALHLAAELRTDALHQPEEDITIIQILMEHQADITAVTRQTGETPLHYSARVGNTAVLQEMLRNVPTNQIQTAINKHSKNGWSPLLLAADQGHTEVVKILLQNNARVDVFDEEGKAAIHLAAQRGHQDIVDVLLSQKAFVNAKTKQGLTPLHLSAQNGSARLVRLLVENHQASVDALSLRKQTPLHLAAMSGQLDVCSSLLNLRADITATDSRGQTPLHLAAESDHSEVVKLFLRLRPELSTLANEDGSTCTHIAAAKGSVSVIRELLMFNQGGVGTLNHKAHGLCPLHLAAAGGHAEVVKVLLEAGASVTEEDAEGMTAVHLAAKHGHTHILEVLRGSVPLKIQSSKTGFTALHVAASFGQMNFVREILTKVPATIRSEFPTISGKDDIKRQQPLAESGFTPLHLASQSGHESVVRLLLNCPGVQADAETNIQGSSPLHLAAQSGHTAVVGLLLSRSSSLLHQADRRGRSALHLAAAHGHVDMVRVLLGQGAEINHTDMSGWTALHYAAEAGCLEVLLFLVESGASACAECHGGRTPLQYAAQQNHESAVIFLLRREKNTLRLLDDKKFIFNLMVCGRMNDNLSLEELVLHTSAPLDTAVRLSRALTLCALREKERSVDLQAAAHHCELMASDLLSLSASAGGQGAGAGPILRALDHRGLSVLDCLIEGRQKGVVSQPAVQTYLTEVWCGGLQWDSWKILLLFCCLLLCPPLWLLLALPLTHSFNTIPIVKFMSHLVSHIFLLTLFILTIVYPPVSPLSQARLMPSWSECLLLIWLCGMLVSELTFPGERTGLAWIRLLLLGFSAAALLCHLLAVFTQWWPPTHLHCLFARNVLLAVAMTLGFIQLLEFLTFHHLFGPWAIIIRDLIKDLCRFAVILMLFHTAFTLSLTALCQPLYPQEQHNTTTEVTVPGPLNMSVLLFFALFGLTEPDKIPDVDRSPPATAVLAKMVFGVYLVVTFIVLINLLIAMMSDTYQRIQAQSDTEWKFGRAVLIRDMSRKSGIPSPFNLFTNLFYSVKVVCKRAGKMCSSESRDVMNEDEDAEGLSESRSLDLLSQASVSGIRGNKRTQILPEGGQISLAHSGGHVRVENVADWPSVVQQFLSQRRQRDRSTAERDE
# [9] = target: T2, Heat shock factor protein 1 (Mus musculus, UniProt P38532); test: decrease of HSF1-responsive luciferase luminescence – cell-based, NIH3T3, dose retest, confirmation (AID 2382); type: functional;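 further: NIH3T3 fibroblasts with HSF1-driven luciferase reporter stressed by proteasome inhibitor MG132; luminescence from HSF1-driven luciferase expression after 8 hours of MG132 stress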
# T2 sequence (P38532 whole entry): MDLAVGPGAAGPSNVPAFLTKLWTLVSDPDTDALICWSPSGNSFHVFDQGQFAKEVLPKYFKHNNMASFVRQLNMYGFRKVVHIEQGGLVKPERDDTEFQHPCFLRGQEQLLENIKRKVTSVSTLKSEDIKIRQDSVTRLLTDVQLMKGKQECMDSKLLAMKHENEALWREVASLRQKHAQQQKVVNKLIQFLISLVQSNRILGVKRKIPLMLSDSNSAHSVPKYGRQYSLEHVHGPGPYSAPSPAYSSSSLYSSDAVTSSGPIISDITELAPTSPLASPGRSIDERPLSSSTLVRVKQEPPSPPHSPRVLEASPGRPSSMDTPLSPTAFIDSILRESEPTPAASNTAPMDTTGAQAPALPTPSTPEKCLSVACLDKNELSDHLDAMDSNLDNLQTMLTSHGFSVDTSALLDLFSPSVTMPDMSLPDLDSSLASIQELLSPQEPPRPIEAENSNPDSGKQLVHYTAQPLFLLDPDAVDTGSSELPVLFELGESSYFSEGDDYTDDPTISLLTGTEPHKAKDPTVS
# [10] = luciferase reporter signal suppression in cells – H4 neuroglioma cells, luminescence, dose response (AID 1990); type: functional, cell-based
# [11] = Luminescence Cell-Based Dose Response HTS to Identify Inhibitors of 5'UTR Stem-Loop Driven Prion Protein mRNA Translation in H4 Neuroglioblastoma Cells. [Related pubchem assays: 1827 (Project Summary), 1813 (Primary HTS)]; type: functional
# [12] = target: Glyceraldehyde-3-phosphate dehydrogenase (Homo sapiens, UniProt P04406)
# Chain of Glyceraldehyde-3-phosphate dehydrogenase (P04406 whole entry): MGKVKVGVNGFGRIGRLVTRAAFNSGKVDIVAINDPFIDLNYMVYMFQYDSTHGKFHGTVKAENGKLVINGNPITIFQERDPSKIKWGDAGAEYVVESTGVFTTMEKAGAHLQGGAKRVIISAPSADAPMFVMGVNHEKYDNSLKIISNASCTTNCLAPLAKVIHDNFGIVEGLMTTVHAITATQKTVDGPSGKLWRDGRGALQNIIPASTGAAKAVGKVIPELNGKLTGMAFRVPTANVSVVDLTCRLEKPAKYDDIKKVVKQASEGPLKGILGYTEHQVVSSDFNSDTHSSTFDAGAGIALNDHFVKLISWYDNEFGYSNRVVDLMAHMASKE
# [13] = target: T3, Alkaline phosphatase, tissue-nonspecific isozyme (Homo sapiens, UniProt P05186); test: potency against alkaline phosphatase TNAP – biochemical, luminescent, dose response, SAR follow-up (AID 1056)
# T3 sequence (P05186 whole entry): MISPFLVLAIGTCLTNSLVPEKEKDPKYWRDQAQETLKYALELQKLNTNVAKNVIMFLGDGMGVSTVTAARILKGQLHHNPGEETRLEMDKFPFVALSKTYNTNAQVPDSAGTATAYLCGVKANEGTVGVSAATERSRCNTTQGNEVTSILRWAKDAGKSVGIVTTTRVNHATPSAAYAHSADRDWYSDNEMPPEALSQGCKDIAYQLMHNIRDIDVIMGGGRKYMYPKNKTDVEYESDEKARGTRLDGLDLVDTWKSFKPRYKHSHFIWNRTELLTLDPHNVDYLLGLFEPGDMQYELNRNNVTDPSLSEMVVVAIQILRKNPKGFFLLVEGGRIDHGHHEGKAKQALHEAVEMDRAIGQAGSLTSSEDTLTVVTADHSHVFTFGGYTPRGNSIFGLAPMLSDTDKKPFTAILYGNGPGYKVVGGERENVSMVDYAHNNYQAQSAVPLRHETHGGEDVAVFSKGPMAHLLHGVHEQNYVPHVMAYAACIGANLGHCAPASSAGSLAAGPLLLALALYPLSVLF
# [14] = A cytotoxicity screen of small molecule inhibitors of the PhoP region in Salmonella typhi identified in the primary screen. [Related pubchem assays: 1850, 1864, 1985 ]; type: functional
# [15] = target: T4, Short transient receptor potential channel 4 (Mus musculus, UniProt Q9QUQ5); test: calcium entry via TRPC4 opening agents – cell-based, HEK293 TRPC4/mu-opioid, Fluo-4 calcium, dose response (AID 434937); type: functional
# T4 sequence (Q9QUQ5 whole entry): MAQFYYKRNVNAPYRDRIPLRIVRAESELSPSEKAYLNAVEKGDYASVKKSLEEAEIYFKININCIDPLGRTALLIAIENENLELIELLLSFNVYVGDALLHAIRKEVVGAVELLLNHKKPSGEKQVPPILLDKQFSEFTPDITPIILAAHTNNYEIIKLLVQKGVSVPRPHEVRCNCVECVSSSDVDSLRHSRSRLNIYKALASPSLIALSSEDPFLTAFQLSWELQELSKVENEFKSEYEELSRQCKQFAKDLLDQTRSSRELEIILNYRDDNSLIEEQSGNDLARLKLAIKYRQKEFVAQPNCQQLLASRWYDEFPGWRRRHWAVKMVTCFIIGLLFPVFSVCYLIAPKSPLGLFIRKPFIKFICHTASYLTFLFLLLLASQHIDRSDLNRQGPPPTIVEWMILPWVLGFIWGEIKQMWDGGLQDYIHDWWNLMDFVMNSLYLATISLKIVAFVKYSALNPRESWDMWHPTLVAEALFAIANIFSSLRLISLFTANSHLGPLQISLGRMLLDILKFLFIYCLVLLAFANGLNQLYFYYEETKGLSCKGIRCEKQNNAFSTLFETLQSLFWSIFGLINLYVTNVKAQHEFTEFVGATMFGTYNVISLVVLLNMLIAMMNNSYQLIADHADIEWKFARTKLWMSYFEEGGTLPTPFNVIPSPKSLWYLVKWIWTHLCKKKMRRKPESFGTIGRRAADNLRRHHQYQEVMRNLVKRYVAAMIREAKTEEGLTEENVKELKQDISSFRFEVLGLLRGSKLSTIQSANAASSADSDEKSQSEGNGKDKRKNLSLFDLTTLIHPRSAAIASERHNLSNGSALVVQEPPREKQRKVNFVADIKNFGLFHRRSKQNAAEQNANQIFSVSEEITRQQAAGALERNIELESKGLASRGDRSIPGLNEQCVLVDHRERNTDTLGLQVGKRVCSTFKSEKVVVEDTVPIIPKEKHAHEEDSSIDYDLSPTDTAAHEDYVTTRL
# Cytochrome P450 1A2 = target: T5, Cytochrome P450 1A2 (Homo sapiens, UniProt P05177);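 further: PubChem cytochrome P450 panel assay, CYP1A2 panel member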
# T5 sequence (P05177 whole entry): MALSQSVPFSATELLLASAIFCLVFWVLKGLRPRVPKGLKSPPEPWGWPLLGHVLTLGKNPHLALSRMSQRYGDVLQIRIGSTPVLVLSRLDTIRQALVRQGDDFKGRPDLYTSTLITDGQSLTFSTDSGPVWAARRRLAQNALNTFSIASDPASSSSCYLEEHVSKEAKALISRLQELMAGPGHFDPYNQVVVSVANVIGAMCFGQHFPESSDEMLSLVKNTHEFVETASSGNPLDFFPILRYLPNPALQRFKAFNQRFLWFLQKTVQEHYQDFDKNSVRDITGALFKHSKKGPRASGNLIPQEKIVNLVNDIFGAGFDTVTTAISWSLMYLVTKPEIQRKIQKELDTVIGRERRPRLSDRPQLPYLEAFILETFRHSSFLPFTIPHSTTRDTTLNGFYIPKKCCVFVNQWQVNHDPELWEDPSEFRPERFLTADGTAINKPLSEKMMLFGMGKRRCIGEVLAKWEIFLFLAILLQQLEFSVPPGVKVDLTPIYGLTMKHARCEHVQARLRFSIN
# [16] = Luminescence Cell-Based Dose Confirmation HTS to Identify Activators of 5'UTR Stem-Loop Driven Alpha-Synuclein mRNA Translation in H4 Neuroglioblastoma Cells. [Related pubchem assays: 1829 (Project Summary), 1814 (Primary HTS)]; type: functional
# [17] = Luminescence Cell-Based Dose Response HTS to Identify Activators of Luciferase Translation or Activity in H4 […] Cells. [Related pubchem assays: 1829 (Project Summary), 1814 (Primary HTS)]; type: functional
# H4 = test: Luminescence Cell-Based Dose Response HTS to Identify Activators of 5'UTR Stem-Loop Driven Prion Protein mRNA Translation in H4 Neuroglioblastoma Cells. [Related pubchem assays: 1829 (Project Summary), 1814 (Primary HTS)]; type: functional; conditions: Homo sapiens
# Bcl-2-like protein 10 = target: T6, Bcl-2-like protein 10 (Homo sapiens, UniProt Q9HD36); test: Bcl-B/TR3 peptide binding disruption – biochemical, fluorescence polarization, FITC-TR3 peptide, selectivity assay for Bfl-1 inhibitor project, primary screen (AID 748);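 further: fluorescence polarization from a fluorescein-labelled TR3 peptide binding purified Bcl-B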
# T6 sequence (Q9HD36 whole entry): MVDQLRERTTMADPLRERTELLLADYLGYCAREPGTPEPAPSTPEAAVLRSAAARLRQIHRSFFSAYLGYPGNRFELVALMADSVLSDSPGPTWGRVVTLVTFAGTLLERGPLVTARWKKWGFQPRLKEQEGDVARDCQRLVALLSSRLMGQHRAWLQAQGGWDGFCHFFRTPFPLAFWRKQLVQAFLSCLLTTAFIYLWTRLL
# [18] = viability loss in THP-1 monocytes – THP-1 cells, cytotoxicity control for Vif-APOBEC3G degradation inhibitor project, dose response (AID 1117359); type: functional; conditions: THP-1
smiles,measurement,setting,value
CCOc1cc(/C=C(\C#N)C(=O)NCC2CCCO2)ccc1OCC(N)=O (configuration not stated),IC50,[1],11 µM (active)
same,EC50,[2],> 160 µM (inactive)
same,IC50,[3],8.13 µM (active)
CC(C)(C)n1nnnc1C(c1ccc(Cl)cc1)N1CCSCC1 (configuration not stated),EC50,[4],0.85 µM (active)
same,EC50,[5],> 112 µM (not active)
same,EC50,[6],> 112 µM (not active)
C=CCSc1nc2c(cnn2-c2ccccc2)c(=O)n1N,EC50,cells,0.914 µM (inconclusive)
same,EC50,[7],0.235 µM (inconclusive)
same,EC50,[8],0.375 µM (inconclusive)
CCCCn1c(C)cc(C)c(S(=O)(=O)c2ccccc2C)c1=O,EC50,Mucolipin-3,3.78 µM (active)
same,EC50,Ion channel NompC,> 29.9 µM (not active)
same,EC50,[9],> 195 µM (not active)
Cc1ccc(Cn2cc(C=O)c3ccccc32)cc1,EC50,cells,0.782 µM (active)
same,EC50,[7],1.29 µM (active)
same,EC50,[10],4.41 µM (active)
same,EC50,[8],1.22 µM (active)
same,EC50,[11],< 0.1 µM (active)
COC(=O)c1cc(-c2ccc(C)cc2)[nH]n1,IC50,[12],> 100 µM (not active)
same,IC50,[13],3.43 µM (active)
COc1ccccc1N1CCN(CCCCOc2ccc(F)cc2)CC1,EC50,[4],7.52 µM (active)
CC1=C(C#N)CCC(=O)N1Cc1c(C)cc(C)cc1C,EC50,[14],> 50 µM (active)
CC1(C)CCCC2=C1CC1C(=O)N(c3ccccc3)C(=O)C1C2 (configuration not stated),EC50,Mucolipin-3,> 29.9 µM (not active)
same,EC50,Ion channel NompC,> 29.9 µM (not active)
O=C(CC1C(=O)NCCN1Cc1ccccc1C(F)(F)F)NCCc1ccccn1 (configuration not stated),EC50,[15],6.68 µM (active)
O=C(Nc1ccc2c(c1)OCCO2)c1cc2sccc2n1Cc1ccccc1,AC50,Cytochrome P450 1A2,12.6 µM (inconclusive)
same,EC50,[4],7.92 µM (active)
COc1ccc(NC(=O)N2CCc3ccccc32)cc1,EC50,[14],> 50 µM (active)
same,EC50,[5],3.53 µM (active)
same,EC50,[6],1.08 µM (active)
COc1ccc(CCn2c(=N)c(C(=O)NCC3CCCO3)cc3c(=O)n4ccccc4nc32)cc1 (configuration not stated),EC50,[14],> 50 µM (active)
same,EC50,[5],> 112 µM (not active)
same,EC50,[6],15.7 µM (active)
Nc1ccc2nc(SCC(=O)Nc3ccc(N4CCOCC4)c(Cl)c3)sc2c1,EC50,[16],14.9 µM (active)
same,IC50,[1],8.08 µM (active)
same,EC50,[17],9.41 µM (active)
same,IC50,[3],3.65 µM (active)
same,EC50,H4,49.1 µM (active)
Cc1nn2c(N)csc2nc1=O,IC50,Bcl-2-like protein 10,> 12.5 µM (inactive)
C#CCSc1nnc(N)[nH]1,IC50,[12],> 100 µM (not active)
same,IC50,[13],> 100 µM (inactive)
O=[N+]([O-])c1cc(-c2ccc(/C=N/c3nc4ccccn4c3-c3ccco3)o2)ccc1Cl,IC50,Bcl-2-like protein 10,96.8 µM (inactive)
same,CC50,[18],18.8 µM (active)

# — ChEMBL document CHEMBL1201862, “PubChem BioAssay data set” (2004)
